Non-standard residues stand in square brackets, D forms with d. Residues, ends and D or L forms follow the SMILES beside them. βAla = NCCC(=O)O
Key:
C. glabrata DSY565 = test: Biofilm formation on bone cement (Palacos r) model implants in infected femur head; design: species or system Candida glabrata; conditions: microbes infiltrated from a hole between implants; 2 days; single experiment
Source text: (§1) The poly(methyl methacrylate)-based bone cement with or without AMPs was implanted either inside infected holes or inside non-infected holes. In the latter case, the microbes infiltrated towards the implant from a hole made between them at roughly equal distance from each (Figure 3). This would simulate the authentic situation in which the pathogens can infect an orthopaedic implant by spreading through the bloodstream or contiguously from areas of infection. We evaluated the experiments on the basis of the amounts of microbes released from the biofilms supposedly formed on the surfaces of the implants that were removed from the infected bone samples.
(§2) The bone samples with bored holes inside were prepared and handled as above. The bone cement (Palacos®r, Hereaus Medical GmbH, Wehrheim, Germany) with AMP incorporated was prepared by swift and thorough mixing of the polymer powder component (poly-methylacrylate, methyl methacrylate, 125 mg) and AMP (10 mg) or antibiotic (10 mg) with the liquid monomer (methyl methacrylate, N,N-dimethyl-p-toluidine, hydroquinone and colorant E141, 70 μL). The resulting elastic paste was pressed using a 2 mL plastic syringe into two bored holes, where it polymerized and solidified. The paste without peptide for filling of the remaining two holes was prepared similarly by mixing the powder component (125 mg) and liquid component (68 μL). […]

[1] = test system: C. albicans ATCC MYA-2876; test: as above; design: species or system Candida albicans; conditions: microbes infiltrated from a hole between implants, 2 days, single experiment
Source text: as §1, §2

[2] = test system: E. faecalis clinical isolate (Motol); test: microbe, parasite or virus in culture; format: cell-based; conditions: clinical isolate Motol; Bioscreen C; at least three times in duplicates
Protocol: (§3) Femur heads (ca. 70 pieces) taken from patients during hip replacement surgery were periodically purchased in the period between 2014–2017 as discarded from the bone tissue bank at University Hospital in Motol, Prague, Czech Republic. The reason for the replacements by artificial prosthesis was the worn out cartilage on the surface of their heads. Bone samples were stored at −80 °C under standard conditions of certified tissue banks. In the laboratory, they were kept at +5 °C overnight and then at room temperature for several hours before they could be used for the experiments. The experiments with this material were approved by the Ethics Committee for Multi-Centric Clinical Trials of the University Hospital Motol, Reference No: EK-655/15. Methicillin-resistant S. aureus (MRSA 6271) ATCC 43300 and P. aeruginosa (5482) ATCC 27853 were purchased from the Czech National Collection of Type Cultures, National Institute of Public Health, Prague, Czech Republic. Methicillin-resistant S. aureus (MRSA (L)) and P. aeruginosa (L) were obtained as multi-resistant clinical isolates from Liberec Regional Hospital, Liberec, Czech Republic. Methicillin-resistant S. aureus (MRSA (M)), E. faecalis and S. epidermidis were obtained as clinical isolates from University Hospital in Motol, Prague. Candida albicans (F7-39/IDE99) came from the mycological collection of the Faculty of Medicine, Palacky University, Olomouc, Czech Republic. C. albicans ATCC MYA-2876, C. tropicalis ATCC 750 and C. glabrata DSY565 were kindly provided by Dr. Hana Sychrová from the Institute of Physiology, Academy of Sciences of the Czech Republic, Prague. Vancomycin hydrochloride, gentamicin sulfate, ceftriaxone disodium salt, amphotericin B, fluconazole, and clotrimazole were obtained from Sigma-Aldrich, Prague, Czech Republic.
(§4) MIC values for peptides were established by observing growth of treated bacteria in HONEYCOMB 100-well microtiter plates (Helsinki, Finland) using a Bioscreen C instrument (Oy Growth Curves, Helsinki, Finland) as previously described. Haemolytic activity of peptides expressed as the concentration of a peptide required for lysis of 50% of human erythrocytes in the assay (LC50) was measured using a Tecan infinite M200 PRO reader (Tecan Austria GmbH, Grödig, Austria). Blood samples for determining haemolytic activity were obtained from healthy volunteers.

MRSA 6271 (ATCC 43300) = test: microbe, parasite or virus in culture; format: cell-based; conditions: growth in 100-well microtiter plates, Bioscreen C; tested at least three times in duplicates
Protocol: as §3, §4

[3] = test system: MRSA clinical isolate from Liberec Regional Hospital (MRSA (L)); test: microbe, parasite or virus in culture; format: cell-based; conditions: clinical isolate Liberec; Bioscreen C; at least three times in duplicates
Protocol: as §3, §4

[4] = test system: MRSA clinical isolate from University Hospital in Motol (MRSA (M)); test: microbe, parasite or virus in culture; format: cell-based; conditions: clinical isolate Motol; Bioscreen C; at least three times in duplicates
Protocol: as §3, §4

[5] = test system: P. aeruginosa (5482) ATCC 27853; test: microbe, parasite or virus in culture; format: cell-based; conditions: Bioscreen C; at least three times in duplicates
Protocol: as §3, §4

[6] = test system: P. aeruginosa clinical isolate from Liberec Regional Hospital; test: microbe, parasite or virus in culture; format: cell-based; conditions: clinical isolate Liberec; Bioscreen C; at least three times in duplicates
Protocol: as §3, §4

[7] = test system: S. epidermidis clinical isolate (Motol); test: microbe, parasite or virus in culture; format: cell-based; conditions: clinical isolate Motol; Bioscreen C; at least three times in duplicates
Protocol: as §3, §4

Candida albicans = format: cell-based; conditions: Bioscreen C; at least three times in duplicates
Protocol: as §3, §4

human erythrocytes = test: Haemolysis assay; format: cell-based; conditions: concentration causing lysis of 50% of human red blood cells; at least three times in duplicates
Protocol: as §4

P. aeruginosa 5482 = test: Experimental model of bone infection (human femur head, ChronOS Inject carrier); design: species or system Pseudomonas aeruginosa; conditions: ChronOS Inject 200 mg blended with 10 mg peptide; 2 days at room temperature; single experiment on one femoral head
Protocol: We usually drilled three to four holes into the spongy part of each bone sample (as space allowed) and then filled the holes with the suspension of microbes (Figure 1a). The next day, the foci of the infection set up in the holes were treated (i) with carrier alone as a control, (ii) with carrier blended with AMP, or (iii) in some cases with a carrier blended with an antibiotic for comparison (Figure 1b). The results of infection eradication were evaluated after two days by counting the bacterial colonies (Figures S1–S3 as illustrative examples) found in the swab taken from each hole after the fillings were removed (Figure 1c).
Three to four holes ca 4 mm in diameter and 8 mm deep were drilled using a surgical spoon at the side of the resection into the spongy part of the femur head. This bone was placed into a beaker cushioned with sterile gauze, which was then drenched with sterile physiological solution. The suspension of selected bacteria (S. aureus, S. epidermidis, P. aeruginosa) in the concentration of 10^9 colony forming units (CFU)/mL in Luria Bertani (LB) medium and E. faecalis in brain-heart infusion (BHI) medium was consecutively infused into each hole in the bone while taking care not to overfill the holes (Figure 1a). […] Following overnight incubation, the numbers of bacterial colonies were counted. The bacterial load was expressed as CFU per hole. […]

Micrococcus luteus = test: Drop diffusion test; format: cell-based; conditions: RP-HPLC peak of bone marrow extract containing the three defensins; not shown
Source text: In several cases when an all-D isomeric peptide alone, or in combination with its parent L-isomer in a 1:4 ratio in the blend with the carrier were applied to the infected hole, we observed a zero microbial count. We suppose that the contribution of D-isomeric peptides (II, VII, X, XII) to bacterial eradication was due to their resistance to proteases either exerted by bacteria or originated from the cells of the bone tissue. In these cases, we detected intact all-D peptide in the extract of the fillings (recovered from the infected hole after completing the experiment) by Reversed-Phase (RP)-HPLC analysis (not shown). On the other hand, the RP-HPLC analyses of the extracts of the fillings containing solely L-peptides indicated partial to complete digestion of peptides by proteases. Nevertheless, we assume that in all cases presented in Table 3 and Figure 2, it was the fast killing effect of AMPs on bacteria that played a conclusive role in eradicating the infection in the bone samples. When carrying out the experiments, we had to take into account that the bacterial load in an infected hole also could be reduced by components of the bone marrow immune system, including blood cells such as neutrophils. […] In one of the RP-HPLC peaks, we detected by mass spectrometry the presence of three human α-defensins HNP1, HNP2, and HNP3 [32] […]

## Clc1ccccc1C(c1ccccc1)(c1ccccc1)n1ccnc1 [Clotrimazole, clotrimazole, reference compound]
C. glabrata DSY565
  CFU/Implant, C. glabrata: 1.2 × 10^6 CFU/implant

## OC(Cn1cncn1)(Cn1cncn1)c1ccc(F)cc1F [Fluconazole, fluconazole, reference compound]
[1]
  CFU/Implant, C. albicans c: 3.6 × 10^4 CFU/implant

## CC[C@H](C)[C@H](NC(=O)[C@H](CCCCN)NC(=O)[C@H](CCCCN)NC(=O)[C@@H](CC(C)C)NC(=O)[C@H](CC(C)C)NC(=O)[C@H](CCCCN)NC(=O)[C@H](CCSC)NC(=O)[C@H](Cc1c[nH]c2ccccc12)NC(=O)[C@H](CCCCN)NC(=O)CN)C(=O)N[C@@H](CC(C)C)C(=O)N[C@@H](CCCCN)C(N)=O [VIII] (H-GKWMKL[dL]KKILK-NH2; N-terminus assumed)
[2]
  Antimicrobial Activity MIC, E. f. b: >100 µM
MRSA 6271 (ATCC 43300)
  Antimicrobial Activity MIC, MRSA 6271: 18.7 µM
[3]
  Antimicrobial Activity MIC, MRSA a: 13.3 µM
[4]
  Antimicrobial Activity MIC, MRSA b: 32.0 µM
[5]
  Antimicrobial Activity MIC, P. a. 5482: 5.0 µM
[6]
  Antimicrobial Activity MIC, P. a. a: 32.0 µM
[7]
  Antimicrobial Activity MIC, S. e. b: 4.0 µM
Candida albicans
  Antimicrobial Activity MIC, C. a.: 8.0 µM
Human erythrocytes
  Haemolytic Activity LC50: >400 µM
[1]
  CFU/Implant, C. albicans c: 6.0 × 10^3 CFU/implant
C. glabrata DSY565
  CFU/Implant, C. glabrata: 2.4 × 10^3 CFU/implant

## CC[C@H](C)[C@H](NC(=O)[C@H](CCCCN)NC(=O)[C@H](CCCCN)NC(=O)[C@H](CC(C)C)NC(=O)[C@H](CC(C)C)NC(=O)[C@H](CCCCN)NC(=O)[C@H](CCSC)NC(=O)[C@H](Cc1c[nH]c2ccccc12)NC(=O)[C@H](CCCCN)NC(=O)CCN)C(=O)N[C@@H](CC(C)C)C(=O)N[C@@H](CCCCN)C(N)=O [XI] (H-[βAla]KWMKLLKKILK-NH2; N-terminus assumed)
[2]
  Antimicrobial Activity MIC, E. f. b: 59.0 µM
MRSA 6271 (ATCC 43300)
  Antimicrobial Activity MIC, MRSA 6271: 11.3 µM
[3]
  Antimicrobial Activity MIC, MRSA a: 5.7 µM
[4]
  Antimicrobial Activity MIC, MRSA b: 10.0 µM
[5]
  Antimicrobial Activity MIC, P. a. 5482: 2.8 µM
[6]
  Antimicrobial Activity MIC, P. a. a: 7.0 µM
[7]
  Antimicrobial Activity MIC, S. e. b: 2.8 µM
Candida albicans
  Antimicrobial Activity MIC, C. a.: 11.3 µM
Human erythrocytes
  Haemolytic Activity LC50: 270 µM
P. aeruginosa 5482
  Colony Forming Units (CFU)/Hole, P. a. 5482: 2.0 × 10^5 CFU/hole

## CYCRIPACIAGERRYGTCIYQGRLWAFCC [HNP2, human α-defensin detected in bone marrow extract of the femur head]
Micrococcus luteus
  antimicrobial activity in drop diffusion tests: exhibited antimicrobial activity

Source: article PMC5874716, “Antimicrobial Peptides for Topical Treatment of Osteomyelitis and Implant-Related Infections: Study in the Spongy Bone” (Pharmaceuticals, 2018)
